How the values were obtained:
[1] = pH monitoring of calcium carbonate antacid tablets in HCl dissolution vessel; format: physicochemical; conditions: five tablets, 25 mEq of HCl
Method: Two dissolution vessels were prepared: one vessel contained 25 mEq of HCl and a single commercially available calcium carbonate antacid tablet (Tums®), and the other vessel contained 25 mEq of HCl and five calcium carbonate antacid tablets. […] Calcium carbonate has shown a capability as a pH modifier and pH dependent solubility.

[2] = acid media pH 1
Method: Thus, sodium bicarbonate was added to a prototype formulation primarily to control rapid pH elevation and calcium carbonate for a more sustained control of elevated pH.

Structure (SMILES) | pH reached in 10 minutes [1] | time to raise acid media from pH 1 to pH 6 [2]
O=C([O-])[O-].[Ca+2] [calcium carbonate] | 5 | –
O=C([O-])O.[Na+] [sodium bicarbonate] | – | less than 2 minutes

— patent US11103581B2, “Methods and compositions for self-regulated release of active pharmaceutical ingredient” (Acura Pharmaceuticals, Inc., priority 2015, dated 2021)
